Assay results taken from PMC11571207, “Stereorandomized Oncocins with Preserved Ribosome Binding and Antibacterial Activity” (Journal of Medicinal Chemistry, 2024).
Like-named read-outs stand apart in the source and are kept apart here. Non-standard residues stand in square brackets, D forms with d. Residues, ends and D or L forms follow the SMILES beside them. Nleu = CC(C)CNCC(=O)O; Nlys = NCCCCNCC(=O)O

Columns and labels:
P. aeruginosa PAO1 = experiment: microbe, parasite or virus in culture; conditions: for MIC P. aeruginosa PAO1: supplement CSV
Method in brief: (§1)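 Read-out was visible growth after MTT addition, the MIC being the lowest inhibitory peptide concentration. Bacteria grown to log phase in LB were exposed in MH medium to peptide from 64 μg/mL in twofold dilutions for 15-18h at 37°C.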

K. pneumoniae NCTC 418 = experiment: microbe, parasite or virus in culture
Method in brief: as §1

S. aureus COL (MRSA) = experiment: microbe, parasite or virus in culture; conditions: for MIC S. aureus COL (MRSA): supplement CSV
Method in brief: as §1

A. baumannii ATCC19606 = experiment: microbe, parasite or virus in culture; conditions: for MIC A. baumannii ATCC19606: supplement CSV
Method in brief: as §1

human red blood cells [1] = conditions: red cells of human, 6 h
human red blood cells [2] = experiment: Hemolysis assay, minimum hemolytic concentration
[3] = tested on: P. aeruginosa PA14 4.13 (phoQ); conditions: for MIC P. aeruginosa PA14 4.13: supplement CSV
E. coli W3110 = experiment: microbe, parasite or virus in culture; conditions: for MIC E. coli W3110: supplement CSV
Method in brief: as §1

[4] = tested on: P. aeruginosa PA14 4.18 (pmrB); conditions: for MIC P. aeruginosa PA14 4.18: supplement CSV
[5] = tested on: P. aeruginosa PA14 2P4 (pmrB); experiment: microbe, parasite or virus in culture; conditions: for MIC P. aeruginosa PA14 2P4: supplement CSV
Description: (§2) Minimum inhibitory concentration assay
(§3) Antimicrobial activity was assayed against P. aeruginosa PAO1, K. pneumoniae NCTC418, E. coli W3110, A. baumannii ATCC 19606, methicillin-resistant S. aureus COL (MRSA), and for selected peptides on P. aeruginosa PA14 and the polymyxin-B-resistant derivative PA14 2P4, as well as the clinical isolates ZEM-1A and ZEM9A, K. pneumoniae OXA-48, S. aureus Newman, Enterobacter cloacae and Burkholderia cenocepacia. The minimal inhibitory concentration (MIC) was determined by using broth microdilution method. A colo ny of bacteria was picked and grown in Luria-Bertani (LB) medium overnight at 37°C. For E. coli BW25113 sbmA::kan the medium was supplemented with 25 mg/L of kanamycin. The next day, the culture was then regrown in LB medium to log phase (OD600 = 0.6 to 0.8), which lasted approximately 4 h, and diluted to an OD600 of 0.022 in the desired medium. Stock solutions of 1 mg/mL of the samples were prepared in sterilized milliQ water and diluted to the beginning concentration of 64 μg/mL in 300 μL Mueller Hinton (MH)-medium. The diluted samples were added to first well of 96-well microtiter plate (TPP, untreated, Faust Laborbedarf, AG, Schaffhausen) and diluted serially by ½. Finally, 4 μL of the bacterial suspension was inoculated into the sample solutions (150 μL/well) with a final inoculation of about 5∙10^5 CFU/mL. The plates were then incubated at 37°C for 15-18h. For each assay, sterility (broth only) and growth control (broth with bacterial inoculum, without antibiotics) were checked with two columns in the plate. The next day, 15 μL of 3-(4,5-dimethylthiazol-2-yl)-2,5-diphenyltetrazolium bromide (MTT) was added to each well of the plate, such a way that MIC was defined as the lowest concentration of the peptide that inhibited visible growth of the tested

P. aeruginosa PA14 = experiment: microbe, parasite or virus in culture; conditions: for MIC P. aeruginosa PA14: supplement CSV
Description: as §2, §3

P. aeruginosa ZEM9A = experiment: microbe, parasite or virus in culture; conditions: for MIC P. aeruginosa ZEM9A: supplement CSV
Description: as §2, §3

P. aeruginosa ZEM-1A = experiment: microbe, parasite or virus in culture
Description: as §2, §3

E. cloacae = experiment: microbe, parasite or virus in culture; conditions: for MIC E. cloacae: supplement CSV
Description: as §2, §3

K. pneumoniae OXA-48 = experiment: microbe, parasite or virus in culture; conditions: for MIC K. pneumoniae OXA-48: supplement CSV
Description: as §2, §3

[6] = polymyxin B resistant strain, 12.5% MHB pH 7.4, 16–20 h at 37 °C
[7] = polymyxin B resistant strain, full MHB pH 7.4, 16–20 h at 37 °C
[8] = supplement CSV, 12.5% MH pH 7.4

CC(C)C[C@H](NC(=O)CN(CC(C)C)C(=O)[C@H](CC(C)C)NC(=O)CN(CCCCN)C(=O)[C@H](CC(C)C)NC(=O)CN(CC(C)C)C(=O)[C@H](CCCCN)NC(=O)CN(CC(C)C)C(=O)[C@H](CC(C)C)NC(=O)CN(CCCCN)C(=O)[C@@H](N)CCCCN)C(N)=O [EB9, reference compound] (H-K[Nlys]L[Nleu]K[Nleu]L[Nlys]L[Nleu]L-NH2; N-terminus assumed)
>2000 µg/mL: MHC human red blood cells (human red blood cells [1])
>32 / >32 μg/mL: MIC K. pneumoniae, 12.5% MHB (K. pneumoniae NCTC 418; NCTC 418) | MIC K. pneumoniae, Full MHB (K. pneumoniae NCTC 418; NCTC 418)
>32 / 32 μg/mL: MIC S. aureus, 12.5% MHB (S. aureus COL (MRSA); COL) | MIC S. aureus, Full MHB (S. aureus COL (MRSA); COL)
32 µg/mL: MIC P. aeruginosa, Full MHB (P. aeruginosa PAO1; PAO1)
4 µg/mL: MIC P. aeruginosa, 12.5% MHB (P. aeruginosa PAO1; PAO1)
16 µg/mL: MIC A. baumannii, 12.5% MHB (A. baumannii ATCC19606; ATCC19606)
>32 µg/mL: MIC K. pneumoniae NCTC418 (K. pneumoniae NCTC 418; NCTC 418, 4 h, pH 7.4)
> 32 µg/mL: MIC A. baumannii, Full MHB (A. baumannii ATCC19606; ATCC19606)

CC[C@@H](C)[C@@H](NC(=O)[C@@H](CCCNC(=N)N)NC(=O)[C@H](CCCNC(=N)N)NC(=O)[C@@H]1CCCN1C(=O)[C@@H]1CCCN1C(=O)[C@H](CCCNC(=N)N)NC(=O)[C@@H]1CCCN1C(=O)[C@H](CCCNC(=N)N)NC(=O)[C@@H]1CCCN1C(=O)[C@H](CC(C)C)NC(=O)[C@H](Cc1ccc(O)cc1)NC(=O)[C@@H]1CCCN1C(=O)[C@@H]1CCCN1C(=O)[C@H](CCCCN)NC(=O)[C@H](CC(=O)O)NC(=O)[C@@H](N)C(C)C)C(=O)N[C@H](Cc1ccc(O)cc1)C(=O)N[C@H](CC(N)=O)C(=O)N[C@H](CCCNC(=N)N)C(N)=O [D5Cterm-Onc] (H-VDKPPYLPRPRPPR[dR][dI][dY][dN][dR]-NH2)
> 64 µg/mL: MIC S. aureus, Full MHB (S. aureus COL (MRSA); S. aureus COL (MRSA), full Müller–Hinton medium, 16–20 h at 37 °C) | MIC P. aeruginosa PA14 2P4 (pmrB), full MHB [5, 7] | MIC P. aeruginosa PA14, full MHB (P. aeruginosa PA14; full MHB pH 7.4, 16–20 h at 37 °C, two different duplicate MIC determinations) | MIC P. aeruginosa ZEM9A, full MHB (P. aeruginosa ZEM9A; clinical isolate, full MHB pH 7.4, 16–20 h at 37 °C)
4 to 8 µg/mL: MIC P. aeruginosa ZEM-1A, 12.5% MHB (P. aeruginosa ZEM-1A; clinical isolate, 12.5% MHB pH 7.4, 16–20 h at 37 °C, cells marked c: single measurement (in duplicates)) | MIC P. aeruginosa ZEM-1A (P. aeruginosa ZEM-1A; [8])
>1000 µg/mL: Haemolysis on hRBC, MHC (human red blood cells [2]; 2.5% human red blood cells (final) in 10 mM phosphate, 150 mM NaCl, pH 7.4, 25 °C, 4 h, visual inspection) | MHC human red blood cells (human red blood cells [2]; supplement CSV)
>64 µg/mL: MIC S. aureus COL (MRSA) (S. aureus COL (MRSA); full MH pH 7.4) | MIC P. aeruginosa PA14 2P4 ([5]; full MH pH 7.4) | MIC P. aeruginosa PA14 (P. aeruginosa PA14; full MH pH 7.4) | MIC P. aeruginosa ZEM9A (P. aeruginosa ZEM9A; full MH pH 7.4)
2 µg/mL: MIC E. coli, 12.5% MHB (E. coli W3110; E. coli W3110, 12.5% Müller–Hinton medium, 16–20 h at 37 °C, broth microdilution) | MIC E. coli W3110 (E. coli W3110; 12.5% MH pH 7.4) | MIC K. pneumoniae, 12.5% MHB (K. pneumoniae NCTC 418; K. pneumoniae NCTC 418, 12.5% Müller–Hinton medium, 16–20 h at 37 °C) | MIC K. pneumoniae NCTC418 (K. pneumoniae NCTC 418; [8]) | MIC P. aeruginosa PA14 2P4 (pmrB), 12.5% MHB [5, 6] | MIC P. aeruginosa PA14 2P4 ([5]; 12.5% MH pH 7.4) | MIC P. aeruginosa ZEM9A, 12.5% MHB (P. aeruginosa ZEM9A; clinical isolate, 12.5% MHB pH 7.4, 16–20 h at 37 °C) | MIC P. aeruginosa ZEM9A (P. aeruginosa ZEM9A; 12.5% MH pH 7.4)
1 µg/mL: MIC E. cloacae, 12.5% MHB (E. cloacae; 12.5% MHB pH 7.4, 16–20 h at 37 °C) | MIC E. cloacae (E. cloacae; 12.5% MH pH 7.4)
64 µg/mL: MIC P. aeruginosa PA14 4.13 (phoQ), full MHB [3, 7] | MIC P. aeruginosa PA14 4.13 ([3]; full MH pH 7.4) | MIC P. aeruginosa, Full MHB (P. aeruginosa PAO1; P. aeruginosa PAO1, full Müller–Hinton medium, 16–20 h at 37 °C) | MIC P. aeruginosa PAO1 (P. aeruginosa PAO1; full MH pH 7.4) | MIC A. baumannii, Full MHB (A. baumannii ATCC19606; A. baumannii ATCC19606, full Müller–Hinton medium, 16–20 h at 37 °C) | MIC A. baumannii ATCC19606 (A. baumannii ATCC19606; full MH pH 7.4) | MIC P. aeruginosa PA14 4.18 (pmrB), full MHB [4, 7] | MIC P. aeruginosa PA14 4.18 ([4]; full MH pH 7.4)
32 µg/mL: MIC S. aureus, 12.5% MHB (S. aureus COL (MRSA); S. aureus COL (MRSA), 12.5% Müller–Hinton medium, 16–20 h at 37 °C) | MIC S. aureus COL (MRSA) (S. aureus COL (MRSA); 12.5% MH pH 7.4) | MIC E. cloacae, full MHB (E. cloacae; full MHB pH 7.4, 16–20 h at 37 °C) | MIC E. cloacae (E. cloacae; full MH pH 7.4) | MIC K. pneumoniae OXA-48, full MHB (K. pneumoniae OXA-48; carbapenem-resistant, full MHB pH 7.4, 16–20 h at 37 °C) | MIC K. pneumoniae OXA-48 (K. pneumoniae OXA-48; full MH pH 7.4)
4 µg/mL: MIC E. coli, Full MHB (E. coli W3110; E. coli W3110, full Müller–Hinton medium, 16–20 h at 37 °C, broth microdilution) | MIC E. coli W3110 (E. coli W3110; full MH pH 7.4) | MIC K. pneumoniae, Full MHB (K. pneumoniae NCTC 418; K. pneumoniae NCTC 418, full Müller–Hinton medium, 16–20 h at 37 °C) | MIC K. pneumoniae NCTC418 (K. pneumoniae NCTC 418; supplement CSV, full MH pH 7.4) | MIC K. pneumoniae OXA-48, 12.5% MHB (K. pneumoniae OXA-48; carbapenem-resistant, 12.5% MHB pH 7.4, 16–20 h at 37 °C) | MIC K. pneumoniae OXA-48 (K. pneumoniae OXA-48; 12.5% MH pH 7.4)
8 µg/mL: MIC P. aeruginosa PA14 4.13 (phoQ), 12.5% MHB [3, 6] | MIC P. aeruginosa PA14 4.13 ([3]; 12.5% MH pH 7.4) | MIC P. aeruginosa, 12.5% MHB (P. aeruginosa PAO1; P. aeruginosa PAO1, 12.5% Müller–Hinton medium, 16–20 h at 37 °C) | MIC P. aeruginosa PAO1 (P. aeruginosa PAO1; 12.5% MH pH 7.4) | MIC A. baumannii, 12.5% MHB (A. baumannii ATCC19606; A. baumannii ATCC19606, 12.5% Müller–Hinton medium, 16–20 h at 37 °C) | MIC A. baumannii ATCC19606 (A. baumannii ATCC19606; 12.5% MH pH 7.4) | MIC P. aeruginosa PA14 4.18 (pmrB), 12.5% MHB [4, 6] | MIC P. aeruginosa PA14 4.18 ([4]; 12.5% MH pH 7.4) | MIC P. aeruginosa PA14, 12.5% MHB (P. aeruginosa PA14; 12.5% MHB pH 7.4, 16–20 h at 37 °C, two different duplicate MIC determinations) | MIC P. aeruginosa PA14 (P. aeruginosa PA14; 12.5% MH pH 7.4)
